Measured values as given in ChEMBL document CHEMBL1201862, “PubChem BioAssay data set” (2004).
The source made the active and inactive calls.

Experiments:
[1] = NIH-3T3 fibroblast cytotoxicity, dose response, cytotoxicity control, cell-based, fluorescence, Alamar Blue, secondary assay (AID 2327); assay type: functional;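 further: NIH-3T3 mouse fibroblasts cultured with fluconazole at 8 µg/mL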
[2] = C. albicans growth with fluconazole, confirmation, fluorescence, retest (AID 2467); assay type: functional, cell-based
[3] = target: T1, Serine/threonine-protein phosphatase (Candida dubliniensis (strain CD36 / CBS 7987 / NCPF 3949 / NRRLY-17841) (Yeast), UniProt B9W6M3); test: calcineurin pathway inhibitors in yeast reporter, dose response, S. cerevisiae, CDRE-lacZ, luminescence, secondary (AID 2388); assay type: functional, cell-based;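 further: yeast reporter cells carrying a calcineurin-responsive lacZ construct stimulated with calcium chloride; luminescent beta-galactosidase reporter signal in whole cells rather than isolated phosphatase activity; potency for inhibition where a drop in reporter signal means calcineurin blockade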
T1 sequence (B9W6M3 whole entry): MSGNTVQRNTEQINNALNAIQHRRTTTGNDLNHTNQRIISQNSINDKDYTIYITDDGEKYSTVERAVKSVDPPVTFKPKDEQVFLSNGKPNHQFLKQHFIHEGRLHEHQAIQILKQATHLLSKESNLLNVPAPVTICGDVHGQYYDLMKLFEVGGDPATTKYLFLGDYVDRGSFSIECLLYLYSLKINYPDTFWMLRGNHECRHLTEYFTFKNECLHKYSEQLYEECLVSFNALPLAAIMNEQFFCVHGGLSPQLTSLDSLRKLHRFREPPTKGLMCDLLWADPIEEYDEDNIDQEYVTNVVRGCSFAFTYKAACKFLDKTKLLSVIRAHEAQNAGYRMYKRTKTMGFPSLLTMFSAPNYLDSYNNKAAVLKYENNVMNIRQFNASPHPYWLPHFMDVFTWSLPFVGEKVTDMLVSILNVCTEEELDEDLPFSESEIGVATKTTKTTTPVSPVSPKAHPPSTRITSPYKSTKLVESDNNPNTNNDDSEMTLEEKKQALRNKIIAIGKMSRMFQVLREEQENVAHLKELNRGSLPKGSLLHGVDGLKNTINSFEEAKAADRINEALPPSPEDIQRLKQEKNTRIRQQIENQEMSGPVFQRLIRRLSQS

[4] = target: ATP-dependent molecular chaperone HSP82 (Candida albicans (strain WO-1) (Yeast), UniProt C4YTQ8); test: loss of DOC-induced GRE-beta-galactosidase reporter signal, dose response, Hsp90 inhibitor project, S. cerevisiae, luminescence (AID 2400); assay type: functional, cell-based;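 further: beta-galactosidase luminescence from glucocorticoid response element reporter as proxy for Hsp90 function; inhibitor potency where signal loss means Hsp90 inhibition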
[5] = target: Peroxisome proliferator-activated receptor gamma/Nuclear receptor coactivator 1 (Homo sapiens, UniProt P37231); test: (§1) TR-FRET dose response biochemical High Throughput Screening assay for agonists of the steroid receptor coactivator 1 (SRC-1) recruitment by the peroxisome proliferator-activated receptor gamma (PPAR gamma): non-selective agonists. [Related pubchem assays (depositor defined):AID1300, AID1808, AID504735, AID631]; assay type: protein assay
[6] = target: Peroxisome proliferator-activated receptor gamma/Nuclear receptor coactivator 3 (Homo sapiens, UniProt P37231); test: as §1, with “3 (SRC-3)” for “1 (SRC-1)”, “assays: 1301 (Confirmation screen.), 1048 (Primary screen.)]” for “assays (depositor defined):AID1300, AID1808, AID504735, AID631]”; assay type: functional
[7] = target: Peroxisome proliferator-activated receptor gamma/Nuclear receptor coactivator 2 (Homo sapiens, UniProt P37231); test: TR-FRET dose response biochemical High Throughput Screening assay for agonists of the steroid receptor coactivator 2 (SRC-2) recruitment by the peroxisome proliferator-activated receptor gamma (PPAR gamma): non-selective agonists. [Related pubchem assays: 1297, 1032 ]; assay type: functional
[8] = target: Endoplasmic reticulum aminopeptidase 1 (Homo sapiens, UniProt Q9NZ08); test: ERAP1 aminopeptidase inhibitors, dose response, biochemical, cherry-pick, set 2, plate reader (AID 743314)
[9] = target: T2, Cytochrome P450 1A2 (Homo sapiens, UniProt P05177);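 further: PubChem cytochrome P450 panel assay, CYP1A2 panel member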
T2 sequence (P05177 whole entry): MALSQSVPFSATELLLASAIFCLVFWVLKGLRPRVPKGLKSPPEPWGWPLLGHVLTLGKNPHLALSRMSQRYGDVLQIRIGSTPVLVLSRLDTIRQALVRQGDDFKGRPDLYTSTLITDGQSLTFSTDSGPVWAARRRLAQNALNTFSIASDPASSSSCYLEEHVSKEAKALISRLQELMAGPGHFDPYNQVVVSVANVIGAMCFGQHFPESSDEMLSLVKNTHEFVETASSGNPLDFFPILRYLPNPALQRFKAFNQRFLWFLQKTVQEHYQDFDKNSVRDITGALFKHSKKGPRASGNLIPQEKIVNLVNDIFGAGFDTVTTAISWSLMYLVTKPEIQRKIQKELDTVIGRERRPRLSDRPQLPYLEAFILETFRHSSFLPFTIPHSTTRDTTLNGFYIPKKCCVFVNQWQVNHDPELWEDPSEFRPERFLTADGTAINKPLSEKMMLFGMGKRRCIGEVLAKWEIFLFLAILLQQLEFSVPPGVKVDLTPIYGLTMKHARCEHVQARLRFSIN

[10] = target: Cytochrome P450 3A4 (Homo sapiens, UniProt P08684);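 further: CYP3A4 tested as one member of a cytochrome P450 panel screen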
[11] = target: Dual specificity tyrosine-phosphorylation-regulated kinase 1A (Rattus norvegicus, UniProt Q63470); assay type: biochemical, Homo sapiens
[12] = target: Cytochrome P450 2C19 (Homo sapiens, UniProt P33261); test: Cytochrome panel assay with activity outcomes. Panel member name: p450-cyp2c19 Compounds with AC50 equal or less than 10 uM are considered active; assay type: functional
Cytochrome P450 2C19, sequence (P33261 whole entry): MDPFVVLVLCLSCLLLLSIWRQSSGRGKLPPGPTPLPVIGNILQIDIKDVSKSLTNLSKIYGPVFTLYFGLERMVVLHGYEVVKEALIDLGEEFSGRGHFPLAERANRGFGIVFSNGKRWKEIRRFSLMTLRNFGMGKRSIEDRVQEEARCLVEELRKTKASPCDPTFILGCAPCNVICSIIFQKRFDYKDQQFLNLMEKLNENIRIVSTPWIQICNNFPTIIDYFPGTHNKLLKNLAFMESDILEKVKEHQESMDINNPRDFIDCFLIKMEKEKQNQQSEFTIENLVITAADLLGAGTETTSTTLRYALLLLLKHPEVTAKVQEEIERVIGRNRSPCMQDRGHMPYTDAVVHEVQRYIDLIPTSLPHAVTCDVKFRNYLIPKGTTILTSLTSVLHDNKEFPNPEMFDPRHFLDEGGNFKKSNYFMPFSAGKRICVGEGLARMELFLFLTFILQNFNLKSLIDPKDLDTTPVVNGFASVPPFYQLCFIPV

Cytochrome P450 3A4, sequence (P08684 whole entry): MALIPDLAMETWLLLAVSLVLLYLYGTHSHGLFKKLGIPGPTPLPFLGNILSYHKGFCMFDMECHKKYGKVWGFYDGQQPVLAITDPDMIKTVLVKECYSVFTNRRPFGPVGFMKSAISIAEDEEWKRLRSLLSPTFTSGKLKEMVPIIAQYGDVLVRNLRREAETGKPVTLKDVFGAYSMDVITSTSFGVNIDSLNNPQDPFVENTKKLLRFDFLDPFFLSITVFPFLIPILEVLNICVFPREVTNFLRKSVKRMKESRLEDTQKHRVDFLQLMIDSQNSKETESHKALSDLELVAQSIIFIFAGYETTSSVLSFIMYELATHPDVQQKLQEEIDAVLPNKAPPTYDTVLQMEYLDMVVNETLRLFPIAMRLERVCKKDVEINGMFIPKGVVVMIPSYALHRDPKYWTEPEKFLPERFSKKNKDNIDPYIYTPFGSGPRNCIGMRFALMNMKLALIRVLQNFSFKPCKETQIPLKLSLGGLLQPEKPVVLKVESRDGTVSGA
Endoplasmic reticulum aminopeptidase 1, sequence (Q9NZ08 whole entry): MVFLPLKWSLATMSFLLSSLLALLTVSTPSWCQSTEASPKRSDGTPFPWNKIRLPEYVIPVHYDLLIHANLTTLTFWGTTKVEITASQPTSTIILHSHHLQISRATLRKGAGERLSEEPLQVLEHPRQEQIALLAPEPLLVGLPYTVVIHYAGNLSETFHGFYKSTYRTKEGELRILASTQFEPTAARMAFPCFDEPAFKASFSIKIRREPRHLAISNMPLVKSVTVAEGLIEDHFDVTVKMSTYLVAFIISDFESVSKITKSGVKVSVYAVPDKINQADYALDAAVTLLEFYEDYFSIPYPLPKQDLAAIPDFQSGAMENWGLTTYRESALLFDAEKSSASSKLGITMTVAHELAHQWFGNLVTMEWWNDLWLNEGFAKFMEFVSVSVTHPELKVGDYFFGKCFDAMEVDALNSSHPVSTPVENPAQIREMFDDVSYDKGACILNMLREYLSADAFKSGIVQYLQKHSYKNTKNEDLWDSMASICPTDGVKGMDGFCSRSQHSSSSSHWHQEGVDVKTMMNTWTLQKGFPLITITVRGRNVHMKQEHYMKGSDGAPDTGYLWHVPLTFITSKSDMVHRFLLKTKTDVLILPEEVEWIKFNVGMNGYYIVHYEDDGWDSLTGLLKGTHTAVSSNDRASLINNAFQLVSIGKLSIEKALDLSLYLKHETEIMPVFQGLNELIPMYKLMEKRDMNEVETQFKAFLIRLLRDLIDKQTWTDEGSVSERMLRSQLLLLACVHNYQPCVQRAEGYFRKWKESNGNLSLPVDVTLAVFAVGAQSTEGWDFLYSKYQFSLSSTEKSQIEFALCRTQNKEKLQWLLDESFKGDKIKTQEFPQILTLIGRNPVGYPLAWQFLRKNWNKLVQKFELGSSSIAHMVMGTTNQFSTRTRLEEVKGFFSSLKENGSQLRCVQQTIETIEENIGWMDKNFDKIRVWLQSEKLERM
Peroxisome proliferator-activated receptor gamma/Nuclear receptor coactivator 1, sequence (P37231 whole entry): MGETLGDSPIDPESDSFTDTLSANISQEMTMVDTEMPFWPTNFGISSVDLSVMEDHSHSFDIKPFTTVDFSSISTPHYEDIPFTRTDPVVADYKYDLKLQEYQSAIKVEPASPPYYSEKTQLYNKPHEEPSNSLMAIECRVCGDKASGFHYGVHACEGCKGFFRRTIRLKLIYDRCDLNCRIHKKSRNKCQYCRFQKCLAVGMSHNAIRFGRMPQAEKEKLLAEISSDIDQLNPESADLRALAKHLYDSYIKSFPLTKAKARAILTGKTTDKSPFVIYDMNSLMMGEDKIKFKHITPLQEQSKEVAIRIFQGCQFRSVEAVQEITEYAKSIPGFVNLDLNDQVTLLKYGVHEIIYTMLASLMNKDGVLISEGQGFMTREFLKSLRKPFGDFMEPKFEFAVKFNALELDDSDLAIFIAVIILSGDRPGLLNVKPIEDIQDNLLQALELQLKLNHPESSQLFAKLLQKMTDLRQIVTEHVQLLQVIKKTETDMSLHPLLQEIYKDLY
Peroxisome proliferator-activated receptor gamma/Nuclear receptor coactivator 1, sequence (Q15788 whole entry, further chain): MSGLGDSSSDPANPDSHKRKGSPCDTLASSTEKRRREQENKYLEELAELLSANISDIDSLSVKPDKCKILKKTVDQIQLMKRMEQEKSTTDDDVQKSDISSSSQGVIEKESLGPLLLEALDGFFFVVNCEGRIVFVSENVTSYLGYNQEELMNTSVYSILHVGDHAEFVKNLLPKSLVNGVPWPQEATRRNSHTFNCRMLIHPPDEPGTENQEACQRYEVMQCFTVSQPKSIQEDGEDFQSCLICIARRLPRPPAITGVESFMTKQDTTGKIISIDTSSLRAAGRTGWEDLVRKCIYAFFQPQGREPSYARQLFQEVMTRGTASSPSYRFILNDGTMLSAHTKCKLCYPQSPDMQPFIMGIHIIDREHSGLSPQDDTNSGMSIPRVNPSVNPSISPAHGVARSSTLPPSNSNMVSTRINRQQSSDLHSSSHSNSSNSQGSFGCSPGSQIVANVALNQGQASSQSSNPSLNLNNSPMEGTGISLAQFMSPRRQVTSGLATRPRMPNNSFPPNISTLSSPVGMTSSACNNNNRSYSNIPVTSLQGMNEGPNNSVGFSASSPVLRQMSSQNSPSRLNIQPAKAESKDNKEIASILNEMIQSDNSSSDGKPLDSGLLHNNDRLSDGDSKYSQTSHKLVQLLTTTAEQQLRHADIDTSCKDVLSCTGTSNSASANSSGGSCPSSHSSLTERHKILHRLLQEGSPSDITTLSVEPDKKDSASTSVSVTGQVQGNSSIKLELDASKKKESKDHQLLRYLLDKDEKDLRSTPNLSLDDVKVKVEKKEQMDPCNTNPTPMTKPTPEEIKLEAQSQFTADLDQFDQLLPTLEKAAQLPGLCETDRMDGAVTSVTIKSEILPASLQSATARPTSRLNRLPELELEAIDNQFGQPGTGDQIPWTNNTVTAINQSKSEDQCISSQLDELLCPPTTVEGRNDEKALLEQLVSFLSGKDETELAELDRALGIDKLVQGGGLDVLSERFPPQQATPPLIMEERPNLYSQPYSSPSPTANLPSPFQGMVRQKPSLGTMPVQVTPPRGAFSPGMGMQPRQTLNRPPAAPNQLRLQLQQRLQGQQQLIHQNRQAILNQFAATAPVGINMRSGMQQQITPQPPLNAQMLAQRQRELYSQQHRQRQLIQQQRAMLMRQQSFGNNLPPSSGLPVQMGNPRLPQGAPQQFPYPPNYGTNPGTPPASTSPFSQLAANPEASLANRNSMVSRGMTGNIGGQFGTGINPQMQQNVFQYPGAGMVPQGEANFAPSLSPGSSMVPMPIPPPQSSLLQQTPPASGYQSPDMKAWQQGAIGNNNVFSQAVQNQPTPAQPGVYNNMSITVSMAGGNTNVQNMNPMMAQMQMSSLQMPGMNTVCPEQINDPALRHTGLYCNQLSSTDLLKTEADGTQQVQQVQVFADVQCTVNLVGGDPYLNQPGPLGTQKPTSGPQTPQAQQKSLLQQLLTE
ATP-dependent molecular chaperone HSP82, sequence (C4YTQ8 whole entry): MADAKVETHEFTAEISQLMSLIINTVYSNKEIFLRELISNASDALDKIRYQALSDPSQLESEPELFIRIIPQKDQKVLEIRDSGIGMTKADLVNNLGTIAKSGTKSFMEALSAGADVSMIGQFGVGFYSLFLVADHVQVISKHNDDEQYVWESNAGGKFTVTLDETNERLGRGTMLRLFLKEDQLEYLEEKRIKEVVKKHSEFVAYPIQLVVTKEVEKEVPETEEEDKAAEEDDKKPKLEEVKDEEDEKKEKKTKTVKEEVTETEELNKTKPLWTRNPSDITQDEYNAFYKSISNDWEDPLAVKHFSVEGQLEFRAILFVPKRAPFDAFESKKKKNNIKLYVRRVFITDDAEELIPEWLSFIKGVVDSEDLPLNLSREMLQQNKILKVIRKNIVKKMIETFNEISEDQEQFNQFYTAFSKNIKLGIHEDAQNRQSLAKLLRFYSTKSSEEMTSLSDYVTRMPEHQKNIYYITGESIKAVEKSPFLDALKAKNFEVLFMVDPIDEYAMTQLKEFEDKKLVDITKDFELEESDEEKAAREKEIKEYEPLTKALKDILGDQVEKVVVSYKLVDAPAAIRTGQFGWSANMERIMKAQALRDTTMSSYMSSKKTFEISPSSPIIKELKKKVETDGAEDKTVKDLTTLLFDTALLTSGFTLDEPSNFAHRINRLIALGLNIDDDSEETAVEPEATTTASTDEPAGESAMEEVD

## O=C(N/N=C/c1cc([N+](=O)[O-])ccc1O)c1ccc(COc2ccc3c(c2)CCC3)o1
[1]
  EC50: 11.6 µM (active)
[2]
  EC50: 1.19 µM (active)
[3]
  EC50: > 180 µM (inactive)
[4]
  EC50: 28.3 µM (active)

## CCn1c(=O)cc(SCC(=O)NCc2ccccn2)c2ccccc21
[5]
  EC50: > 79.4 µM (inactive)
[6]
  EC50: > 79.4 µM (not active)
[7]
  EC50: > 79.4 µM (not active)

## CC(=O)N1[C@@H]2Cn3c(ccc(/C=C/c4ccccc4)c3=O)[C@H]1[C@@H](C(=O)NCC1CC1)[C@@H]2CO
[8]
  AC50: 8.13 µM (active)

## Cn1c(=O)c(-c2ccc(Cl)cc2)nc2cnc(Oc3cccc(Cl)c3)nc21
[9]
  AC50: 0.251 µM (inconclusive)
[10]
  AC50: inconclusive

## O=C(Nc1ccc(Cl)cc1)Nc1ccc2c(c1)N1CCN=C1S2
[11]
  AC50: 1.07 µM (active)

## O=C(Nc1nnc(COc2ccc(Cl)cc2)s1)c1ccc([N+](=O)[O-])cc1
[12]
  AC50: inconclusive
[10]
  AC50: inconclusive

## COc1cc(O)c2c(=O)c3c(O)c(O)ccc3oc2c1OC
[11]
  AC50: 2.06 µM (active)

## CCOC(=O)N1CCN(C(=O)c2ccc3c(=O)n(-c4ccc(OC)cc4)c(=S)[nH]c3c2)CC1
[9]
  AC50: 39.8 µM (inconclusive)
[10]
  AC50: inconclusive
